Assay results from patent publication US20090304766A1, “LOCALIZED DELIVERY OF DRUG COMBINATIONS” (priority 2005, published 2009).

Assay: in vitro combination dose-effect analysis (cytotoxicity, Chou-Talalay combination index)
Assay type: cell-based
Settings: FIG. 2D; single agent compared with combination
Protocol: By way of illustration, individual agents and various combinations thereof are tested for their biological effect on cell culture or a cell-free system, for example causing cell death or inhibiting cell growth, at various concentration levels. The concentration levels of the preset ratios are plotted against the percentage cell survival to obtain a correlation which can be manipulated by known and established mathematical techniques to calculate a “combination index” (CI). The mathematics are such that a CI of 1 (i.e., 0.9-1.1) describes an additive effect of the drugs; a CI>1 (i.e., >1.1) represents an antagonist effect; and a CI of <1 (i.e., <0.9) represents a synergistic effect.
As shown, agents A and B are tested individually and together at two different ratios for their ability to cause cell death or cell stasis as assessed by the MTT assay described below. Initially, correlations between the concentration of drugs A, B, and the two different combination ratios (Y:Z and X:Y) are plotted against cytotoxicity, calculated as a percentage based on the survival of untreated control cells. […] Once this correlation has been established, the cell survival or fraction affected (fa) can be used as a surrogate for concentration in calculating the CI. […]

Row | SMILES | concentration required to achieve a 90% cell kill on its own versus when combined at a non-antagonistic ratio
1 | N.N.O=C([O-])C1(C(=O)[O-])CCC1.[Pt+2] [carboplatin] | significantly higher
2 | CCc1c2c(nc3ccc(OC(=O)N4CCC(N5CCCCC5)CC4)cc13)-c1cc3c(c(=O)n1C2)COC(=O)[C@]3(O)CC [irinotecan] | significantly higher
